The source of these data is ChEMBL document CHEMBL1146148, “Hydroxyl radical scavenging by edaravone derivatives: Efficient scavenging by 3-methyl-1-(pyridin-2-yl)-5-pyrazolone with an intramolecular base” (Bioorg Med Chem Lett, 2006).

As a reminder, the IC50 is the concentration that inhibits the measured activity by half. Lower therefore signals inhibition by little substance.

Each structure is given as a SMILES string.

This assay in a line: Hydroxyl radical scavenging activity by ESR spin-trapping method. Format: functional.
Turning to `CC1=NN(c2ccc([N+](=O)[O-])cc2)C(=O)C1`, the IC50 was determined as 500 µM.
With `O=C1CC(C(F)(F)F)=NN1c1ccccc1`, the half-maximal inhibitory concentration (IC50) turned out to be 810 µM. This IC50 lies about 1.6-fold higher than the previous one.
`CC1=NN(c2ccccc2)C(=O)C1c1ccccc1` (stereo not drawn) gave a half-inhibitory concentration (IC50) of 790 µM.
`CC1=NN(c2ccccc2)C(=O)C1C1CC1` (stereo not drawn): half-maximal inhibition (IC50) was put at 720 µM.
The molecule `CC1=NN(c2ccccc2)C(=O)C1C(=O)c1ccccc1` (stereo not drawn) came in with an IC50 of 610 µM. This IC50 and that of the molecule before are within 1.5-fold of each other.
`CC1=NN(c2ccccn2)C(=O)C1` displayed an IC50 of 18 µM. This IC50 is about 34-fold lower than that of the molecule before.
In turn, `O=C(NC1=NN(c2ccccc2)C(=O)C1)Oc1ccccc1` registered a half-maximal inhibitory concentration (IC50) of 380 µM. Against the preceding molecule, the IC50 is about 21-fold higher.
On to `CC1=NN(c2ccccc2)C(=O)C1` [EDARAVONE], for which the IC50 came to 250 µM. Against the preceding molecule, the IC50 is about 1.5-fold lower.
